Reference: patent publication US10369159B2, “Estrogen receptor β partial agonist having estrogen receptor α inhibitory effect, and gynecological disease therapeutic agent using same” (NOBELPHARMA CO., LTD., priority 2015, dated 2019)
Several values for one entry are separate records, joined by “and”; a condition that tells them apart may be missing. Identical values can stand only once.

How the values were obtained:
[1] = test system: rat endometriosis model; assay: Wet weight of each organ (pituitary, adrenal glands, left uterine horn, femur) in the rat endometriosis model; format: in vivo; conditions: for Wet weight of pituitary: vehicle 0.0271 g; for Wet weight of adrenal gland (right): vehicle 0.0425 g; for Wet weight of adrenal gland (left): vehicle 0.0468 g; for Wet weight of adrenal glands (the sum of the left and right): vehicle 0.0893 g; for Wet weight of left uterine horn: vehicle 0.1428 g; for Wet weight of femur (left): vehicle 0.7589 g
Protocol: On the previous day of the model preparation (the grouping date), under inhalation anesthesia of 2% isoflurane, an incision was made in the abdomen of the rats. Subsequently, about 5 mL of blood was collected with a syringe from the abdominal vena cava and collected in a Venoject II vacuum blood collection tube (EDTA-2K), then cut the abdominal vena cava and abdominal aorta to euthanize by exsanguination. The right uterine horn was excised and cut out two strips (approximately 5 mm×5 mm), then cut out strips (approximately 5 mm×5 mm) from the graft sites, the right and left abdominal walls (muscle layer and peritoneum). After that, wet weight of each strip and abdominal wall was measured. Then pituitary, adrenal glands (both sides), left uterine horn, mammary gland (excised with the nipples, three on the lower abdomen, a sample for RNA measurement was approximately 3 mm in diameter) and femur (left side) were excised.
As for the pituitary, adrenal glands (both sides), left uterine horn and femur, wet weight was measured. The femur bone after wet weight measurement was discarded.
The administration was made orally, and the drug was forcibly administered into a stomach once a day using a flexible oral sonde and syringe for 28 consecutive days.
On the next day of the final administration, the abdominal dissection was made under inhalation anesthesia of 2% isoflurane, and the grafted uterine strips (two pieces) were excised, and photographed with a digital camera. Subsequently, about 5 mL of blood was collected with a syringe from the abdominal vena cava and collected in a Venoject II vacuum blood collection tube (EDTA-2K), then cut the abdominal vena cava and abdominal aorta to euthanize by exsanguination. Then pituitary, adrenal glands (both sides), graft uterine strips (two pieces), left uterine horn, mammary gland (excised with the nipples, three on the lower abdomen, a sample for RNA measurement was approximately 3 mm in diameter) and femur (left side) were excised.
As for the pituitary, adrenal glands (both sides), grafted uterine strip (one piece), left uterine horn and femur, wet weight was measured. The femur bone after wet weight measurement was discarded.

[2] = test system: rat endometriosis model (grafted uterine strips); assay: Endometriosis inhibiting activity: grafted uterine strip weight in ovariectomized, E2-treated rat endometriosis model; format: in vivo; conditions: for Total wet weight of the grafted uterine strips: left and right strips including abdominal wall, vehicle 0.4785 g, Sham 0.2596 g; for Suppression rate of grafted uterine strip weight (% ± SE): vs vehicle control, strip weight after subtracting Sham abdominal wall; for Suppression rate of the grafted uterine strip (average value): vehicle control group set as 0%, Table 2
Protocol: Buprenorphine hydrochloride (Lepetan injection 0.3 mg, Otsuka Pharmaceutical Co., Ltd., […] of which was diluted to 6.7 times with a physiological saline solution to provide 0.03 mg/mL solution when using) was administered subcutaneously into the back of the rats at a dose of 0.0024 mg/body (0.08 mL/body). The administration period was two days, which includes twice before and after the model preparation on the day when the model was prepared, and twice per day on the next day. It should be noted that the dosage amount of 0.0024 mg/body was the one that satisfied a recommended dose of 0.01 mg/kg in […] (0.0096 mg/kg) (estimated weight upon model preparation: 180 to 240 g).
Under 2% inhalation anesthesia, left and right flanks of the rats (operation site) were shaved, and the skin of one of the flasks was dissected. After peeling off the skin, the muscle layer was cut to open using a retractor so as to protrude it to the outside of the body with fat tissue around the ovary, then the fallopian tubes were ligated with a silk thread (sterile suture) followed by removing the ovary including the fat tissue. The peeled muscle layer and one part of the peritoneum were sutured with silk thread (sterile suture), then kanamycin solution, antibiotics, (manufactured by Meiji Seika Pharma Co., Ltd., “Meiji,” kanamycin sulfate injection of 1000 mg was diluted to 5 mg/mL with injection solvent) was applied to the operation site. The dissected skin was sutured with silk thread (sterile suture). Another ovary in the opposite side was removed in the same manner. At the time of the operation, sterile gloves were used, and surgical instruments used were sterilized by an autoclave and beads sterilizer. The surgical area was shaved with an electric clipper followed by disinfected with isodine alcohol and covered with a sterile bedsheet and a covering cloth.
Since the day of ovariectomy, after it was performed, E2 (β-Estradiol, 3 μg/mL animal) was subcutaneously administered to the back of the rats every day for 2 weeks. E2 (3 μg/mL animal) was administered in the same manner during 4 weeks after model preparation on the date that the model was prepared.
Thirteen days after ovariectomy (day 0 counting), the rats were divided into four groups (N=8) as the total weight on the grouping day was uniform in each group. Animals excluded from the groups were distributed to the Sham group.
On the next day of the grouping, models were prepared in accordance with Uchiide et al method, which was partially modified Vernon et al method. Rats were placed under inhalation anesthesia of 2% isoflurane, and made an incision in the abdomen along the midline, then the right uterine horn was excised and cut in half along the vertical line after removing the fat cells around the excised uterine horn. The uterine horn was made an incision along the horizontal axis to cut out two strips of approximately 5 mm×5 mm. The serosal surface of the abdominal cavity and the endometrial surface of the uterus strips were faced and sawed up the four corners thereof with a bioabsorbable suture (6-0, PDS-II, manufactured by Ethicon) to graft the uterine horns into the right and left abdominal walls one by one. In order to avoid adhesion, the abdominal cavity was washed with saline (manufactured by Otsuka Pharmaceutical Factory). Then, the abdominal wall fascia was sawed up with a bioabsorbable suture (4-0, monocryl, manufactured by Ethicon) and the skin was sawed up with a silk suture (4-0, blade silk, manufactured by Ethicon).
A required amount of SR16234 was weighed, pulverized with an agate mortar and pestle, and suspended in 0.5% carboxymethylcellulose sodium (CMC-Na) solution to prepare a 2 mg/mL solution, then used as undiluted solution. Preparation was performed using a volumetric flask. […]

SMILES: CCN(CC)Cc1ccc(OCC[C@H]2CC[C@H]3[C@@H]4[C@H](C)Cc5cc(O)ccc5[C@H]4CC[C@]23C)c(OC)c1 [SR16234, (7α)-21-[4-[(diethylamino)methyl]-2-methoxyphenoxy]-7-methyl-19-norpregna-1,3,5(10)-triene-3-ol]
- Wet weight of pituitary ([1]; 0.1 mg/kg p.o. 28 days): 0.0226 g
- Wet weight of adrenal gland (right) ([1]; 0.1 mg/kg p.o. 28 days): 0.0400 g
- Wet weight of adrenal gland (left) ([1]; 0.1 mg/kg p.o. 28 days): 0.0438 g
- Wet weight of adrenal glands (the sum of the left and right) ([1]; 0.1 mg/kg p.o. 28 days): 0.0838 g
- Wet weight of left uterine horn ([1]; 0.1 mg/kg p.o. 28 days): 0.1261 g
- Wet weight of femur (left) ([1]; 0.1 mg/kg p.o. 28 days): 0.7597 g
- Weight trend in comparison with the vehicle control group after the Day 14 (in words) ([1]; 0.3 mg/kg and 0.1 mg/kg administered group): very mild weight suppression trend
- Wet weight of pituitary ([1]; 0.3 mg/kg p.o. 28 days): 0.0187 g
- Wet weight of adrenal gland (right) ([1]; 0.3 mg/kg p.o. 28 days): 0.0381 g
- Wet weight of adrenal gland (left) ([1]; 0.3 mg/kg p.o. 28 days): 0.0398 g
- Wet weight of adrenal glands (the sum of the left and right) ([1]; 0.3 mg/kg p.o. 28 days): 0.0779 g
- Wet weight of left uterine horn ([1]; 0.3 mg/kg p.o. 28 days): 0.1119 g
- Wet weight of femur (left) ([1]; 0.3 mg/kg p.o. 28 days): 0.7598 g
- Wet weight of pituitary ([1]; 1.0 mg/kg p.o. 28 days): 0.0174 g
- Wet weight of adrenal gland (right) ([1]; 1.0 mg/kg p.o. 28 days): 0.0357 g
- Wet weight of adrenal gland (left) ([1]; 1.0 mg/kg p.o. 28 days): 0.0375 g
- Wet weight of adrenal glands (the sum of the left and right) ([1]; 1.0 mg/kg p.o. 28 days): 0.0732 g
- Wet weight of left uterine horn ([1]; 1.0 mg/kg p.o. 28 days): 0.1016 g
- Wet weight of femur (left) ([1]; 1.0 mg/kg p.o. 28 days): 0.7301 g
- Wet weight of organs in comparison with the vehicle control group (in words) ([1]; SR16234 administered groups, 0.1, 0.3 and 1.0 mg/kg): decreasing trend associated with the dose increase
- Total wet weight of the grafted uterine strips ([2]; 0.1 mg/kg p.o. 28 days): 0.3988 g
- Suppression rate of grafted uterine strip weight (% ± SE) ([2]; 0.1 mg/kg p.o. once a day for 28 days): 36.4 ± 25.2%
- Suppression rate of the grafted uterine strip (average value) ([2]; 0.1 mg/kg p.o.): 26%
- Total wet weight of the grafted uterine strips ([2]; 0.3 mg/kg p.o. 28 days): 0.3401 g
- Suppression rate of grafted uterine strip weight (% ± SE) ([2]; 0.3 mg/kg p.o. once a day for 28 days): 63.2 ± 17.7%
- Suppression rate of the grafted uterine strip (average value) ([2]; 0.3 mg/kg p.o.): 45%
- Suppression rate of the grafted uterine strip weight compared to the vehicle control group (in words) ([2]; 1.0 mg/kg administered group): particularly significant suppression rate
- Total wet weight of the grafted uterine strips compared to the vehicle control group (in words) ([2]; 1.0 mg/kg administered group): particularly significant suppression ratio
- Total wet weight of the grafted uterine strips ([2]; 1.0 mg/kg p.o. 28 days): 0.2647 g
- Suppression rate of grafted uterine strip weight (% ± SE) ([2]; 1.0 mg/kg p.o. once a day for 28 days): 97.7 ± 21.2%
- Suppression rate of the grafted uterine strip (average value) ([2]; 1.0 mg/kg p.o.): 68% and 69.0%
